{"source": "patent US20210349082A1", "about": "“ANALYSIS INSTRUMENT” (First Light Diagnostics, Inc., priority 2018, published 2021)", "key": {"[1]": {"test_system": "K. pneumonaie strain in clinical urine sample BIUR0084", "test": "Automated MultiPath AST cartridge on clinical urine sample", "type": "cell-based", "conditions": "clinical urine sample BIUR0084 (K. pneumoniae); 2 antibiotic concentrations; 4 h growth; fold growth value of 2"}, "P. aeruginosa": {"test_system": "P. aeruginosa", "conditions": "cited from earlier work"}}, "note": "Read-outs that look alike come from different tables or passages of the source."}
{"compound": "Cc1nnc(SCC2=C(C(=O)O)N3C(=O)[C@@H](NC(=O)Cn4cnnn4)[C@H]3SC2)s1", "note": "[Cefazolin]", "values": [{"measurement": "sensitive/resistant call by MulitPath", "setting": "[1]", "value": "resistant"}]}
{"compound": "Trimethoprim/Sulfamethoxazole", "values": [{"measurement": "previously determined antibiotic resistance", "setting": "P. aeruginosa; P. aeruginosa ATCC 27853", "value": "Intrinsically"}, {"measurement": "previously determined antibiotic resistance", "setting": "P. aeruginosa; P. aeruginosa CDC0105", "value": "Intrinsically"}, {"measurement": "previously determined antibiotic resistance", "setting": "P. aeruginosa; P. aeruginosa CDC0111", "value": "Intrinsically"}, {"measurement": "previously determined antibiotic resistance", "setting": "P. aeruginosa; P. aeruginosa CDC0232", "value": "Intrinsically"}, {"measurement": "previously determined antibiotic resistance", "setting": "P. aeruginosa; P. aeruginosa CDC0242", "value": "Intrinsically"}, {"measurement": "previously determined antibiotic resistance", "setting": "P. aeruginosa; P. aeruginosa CDC0247", "value": "Intrinsically"}, {"measurement": "previously determined antibiotic resistance", "setting": "P. aeruginosa; P. aeruginosa CDC0251", "value": "Intrinsically"}, {"measurement": "previously determined antibiotic resistance", "setting": "P. aeruginosa; P. aeruginosa CDC0253", "value": "Intrinsically"}, {"measurement": "previously determined antibiotic resistance", "setting": "P. aeruginosa; P. aeruginosa CDC0259", "value": "Intrinsically"}, {"measurement": "previously determined antibiotic resistance", "setting": "P. aeruginosa; P. aeruginosa CDC0261", "value": "Intrinsically"}, {"measurement": "previously determined antibiotic resistance", "setting": "P. aeruginosa; P. aeruginosa CDC0262", "value": "Intrinsically"}, {"measurement": "sensitive/resistant call by MulitPath", "setting": "[1]", "value": "resistant"}]}
